From paper PMC8012331, “Drug-induced hepatic steatosis in absence of severe mitochondrial dysfunction in HepaRG cells: proof of multiple mechanism-based toxicity” (Cell Biology and Toxicology, 2020)
Values joined by “and” are separate entries in the source; they are usually repeats but may differ in a detail not shown here. Identical values can stand only once. Like-named read-outs stand apart in the source and are kept apart here.

Tests used:
[1] = tested on: de novo lipogenesis (DNL); assay: DNL from [2-14C]acetic acid in HepaRG cells; type: cell-based, human; details: 4 days, vs control
Experimental: (§1) Experiments were carried out on passages 9 to 16. […] DPEN was dissolved in water.
DNL was assessed by measuring newly synthesized radiolabeled lipids from [2-^14C]acetic acid, using a protocol adapted from Byrne et al. ([2014]). Briefly, culture medium was removed and cells were washed with warm PBS. Next, cells were incubated for 3 h with phenol red-free William’s E medium containing 1% fatty acid-free BSA, [2-^14C]acetic acid (1850 Bq per well, corresponding to 19.4 pM) and 50 μM cold acetic acid. Medium was then gently removed and cells were washed with warm PBS before adding a mix of hexane/isopropanol (3:2; v/v). Cell culture plates were sealed and incubated for 1 h at room temperature for lipid extraction. After transfer of the plate content in 200-μL microtubes, hexane and PBS were added to have a hexane/isopropanol/PBS ratio of 6:2:3 (v/v/v). Microtubes were then centrifuged at 1000×g for 5 min and radiolabeled lipids were counted in the upper phase with a Tri-Carb 4910TR liquid scintillation counter (PerkinElmer). Results were normalized to total protein content and expressed in comparison to control cells.

[2] = tested on: HepaRG cells; assay: Neutral lipids with Nile red in HepaRG cells; details: 4 days
Experimental: (§2) Briefly, HepaRG cells were seeded in 96-well plates at a density of 2.6 × 10^4 cells/cm^2 and were first incubated in William’s E medium supplemented with 10% FBS (50% FBS from Eurobio and 50% FBS from GE Healthcare), 100 U/mL penicillin, 100 μg/mL streptomycin, 2 mM glutamine, 5 μg/mL insulin, and 50 μM hydrocortisone hemisuccinate. […] During this 1-month period, the culture medium was renewed three times a week. […] HepaRG cells were next cultured in the same FBS/DMSO conditions and incubated for 4 days with each drug at different concentrations. Culture medium was renewed every day and all investigations were performed after 96 h (i.e., 24 h after the fourth treatment). These investigations were mostly performed in 96-well plates except for western blot analysis, for which 6-well plates were used. Experiments were carried out on passages 9 to 16. All drugs (except DPEN), etomoxir, lomitapide, tunicamycin, thapsigargin, and TUDCA were dissolved in DMSO. DPEN was dissolved in water.
(§3) Cells were then incubated with PBS containing 0.1 μg/mL Nile red for 30 min and washed once. […] For each well, four pictures were taken at a magnification of × 20 and analyzed with Columbus software (PerkinElmer) for quantification. These pictures were always taken in four different areas around the center of each well, and these areas were the same from one well to another, as programmed by the Columbus software. This software was also designed to count only living cells after exclusion of dying cells harboring nuclei with abnormal shape or altered Hoechst intensity. […] Neutral lipids were then normalized per number of nuclei and expressed relative to control cells. Examples of images used for neutral lipid quantification are shown in Supplementary Fig. 2.

[3] = tested on: apoC3 secretion; assay: apoC3 level in culture medium (HTRF), HepaRG cells; type: cell-based, human; details: 4 days, culture medium, vs control
Experimental: as §2
Apolipoprotein C3 (apoC3) level was measured using the Human Apolipoprotein C3 kit from Cisbio Bioassays (Codolet, France), according to the manufacturer’s instructions. Briefly, 10 μL of supernatants was incubated with two different specific anti-human apoC3 antibodies, one donor and one acceptor. The detection principle of apoC3 is based on HTRF® (Homogeneous Time Resolved Fluorescence), a time-resolved FRET (Förster Resonance Energy Transfer) technology. After 2 h of incubation, light emission was measured with the Infinite F Nano+ microplate reader (Tecan, Männedorf, Switzerland). ApoC3 level was calculated utilizing standard curve, based on the ratio of A665 nm/A615 nm, and normalized to the total cellular protein content. Results were expressed in comparison to control cells.

[4] = Maximum plasma concentration (Cmax) in patients; type: in vivo, human; details: worked out from cited Cmax in patients
[5] = tested on: ERN1 (IRE1α); assay: RT-qPCR ERN1 mRNA in HepaRG cells; type: cell-based, human; details: 4 days, vs control
Experimental: Total RNA was extracted with the Nucleospin RNA isolation system purchased from Macherey-Nagel (Düren, Germany), which included a DNase treatment step. Quantification of isolated RNAs was assessed using a Nanodrop 1000 (Thermo Fisher Scientific, Waltham, MA). RNAs were reverse-transcribed into cDNAs using the High-Capacity cDNA Reverse Transcription Kit purchased from Applied Biosystems (Woolston, UK). Gene expression was assessed by real-time quantitative PCR analysis (RT-qPCR) using SYBR Green PCR Master Mix (Applied Biosystems) and a 384-well QuantStudio™ 7 Flex Real-Time PCR System (Thermo Fisher Scientific). Sequences of the primers used to measure gene expression are presented in Supplementary Table 3. Expression of GAPDH was chosen as reference and the 2^−ΔΔCt calculation method was used to express the relative expression of each selected gene.

[6] = treated patients, ref Schulz M et al., Crit Care 2012 ;16(4):R136, cited from earlier work
[7] = tested on: mitochondrial fatty acid oxidation (mtFAO); assay: mtFAO with [U-14C]palmitic acid in HepaRG cells; type: cell-based, human; details: 4 days, vs control
Experimental: as §1
Results were normalized to total protein content determined using the Pierce BCA assay kit from Thermo Fischer Scientific (Waltham, MA). Results were expressed in comparison to control cells.

[8] = patients, ref given per drug, cited from earlier work; for Cmax: read-out: Maximum plasma concentration (Cmax) in patients
[9] = tested on: apoB secretion; assay: apoB level in culture medium (ELISA), HepaRG cells; type: cell-based, human; details: 4 days, culture medium, vs control
Experimental: as §1
Twenty-four hours after the last treatment, cell supernatants were removed and stored at − 80 °C until use for apolipoprotein measurement. ApoB level was measured using the Human Apolipoprotein B ELISA^pro kit from Mabtech (Nacka Strand, Sweden), according to the manufacturer’s instructions. Briefly, 50 μL of samples were diluted 2× in Apo ELISA buffer before a 2-h incubation in the precoated strip plates provided in the kit. The plates were washed and incubated 1 h with the biotinylated monoclonal anti-human apoB (LDL-11-biotin) antibody. The plates were then washed and incubated 1 h with a streptavidin–horseradish peroxidase conjugated antibody. After another washing, 3,3′,5,5′-tetramethylbenzidine (TMB) was used as substrate for 15 min before adding a stop solution. Absorbance at 450 nm was then measured using a POLARstar Omega microplate reader (BMG Labtech, Ortenberg). ApoB level was calculated utilizing a four-parameter standard curve, and normalized to the total cellular protein content and expressed in comparison to control cells.

[10] = tested on: primary human hepatocytes (PHH); assay: Neutral lipids with Nile red in primary human hepatocytes; type: cell-based; details: 4 days
Experimental: Primary human hepatocytes (PHH) were purchased from Biopredic International (Saint-Grégoire, France). Cells were seeded by the supplier in coated 96-well plates at a density of 5 × 10^4 cells/well. Upon receipt, culture medium was removed and replaced by William’s E medium supplemented as previously described for HepaRG cell differentiation, except for DMSO set at 1%. After 2–3 days, cells were treated as for HepaRG cells. For HepaRG cells and PHH, cells were always maintained in incubators at 37 °C with 5% CO2 and saturating humidity.
as §3

[11] = tested on: HepaRG cells; assay: Cellular ATP level (CellTiter-Glo) in HepaRG cells; type: cell-based, human; details: 4 days, vs controls
Experimental: Cellular ATP level was measured using the CellTiter-Glo® Luminescent Cell Viability assay purchased from Promega (Charbonnières, France), according to the manufacturer’s instructions. Briefly, control and treated HepaRG cells were first washed with warm PBS and kept for 30 min at room temperature in phenol red-free William’s E medium. Cells were next incubated with the CellTiter-Glo® reagent for 10 min at room temperature. Cells were then transferred in opaque-walled multiwell plates and the luminescent signal was quantified using a POLARstar Omega microplate reader (BMG Labtech, Ortenberg, Germany). Results were expressed in comparison to control cells.

[12] = selected concentrations (ATP loss < 30%, not above 100 × Cmax), vs control

Row | SMILES | Concentration corresponding to 100xCmax [4] [µM] | Effect on DNL [1] | Accumulation of neutral lipids (steatosis) [2, 12] | Effect on apoC3 secretion [3] | Effect on mtFAO [7] | Maximum plasma concentration (Cmax) in patients [8] [ng/mL] | Cmax [8] [µM] | Effect on apoB secretion [9] | Loss of cellular ATP relative to the maximum concentration selected for the study [11] | further results
1 | O=c1[nH]cc(F)c(=O)[nH]1 [5FU, 5-fluorouracil] | 42000 | curb this metabolic pathway | significant accumulation of neutral lipids | reduced the secretion | significantly enhance mtFAO | ≤ 55000 | ≤ 420 | reduced the secretion | 100 µM (loss of cellular ATP above 30% of the controls for higher concentrations, as shown in Supp. fig 1) | ERN1 (IRE1α) mRNA level [5]: enhanced IRE1α mRNA level; Therapeutic blood (or plasma) concentration in patients ([6]; listed as 5-Fluorouracil (5FU)): 0.05 - 0.3 mg/L and 0.38 - 2.3 µM; Steatosis in PHH batches (six batches tested) [10]: induced steatosis in only one PHH batch
2 | Oc1ncnc2[nH]ncc12 [ALLO, allopurinol] | 1500 | curb this metabolic pathway | significant accumulation of neutral lipids | reduced the secretion | significantly enhance mtFAO | ≤ 2050 | ≤ 15 | reduced the secretion | 750 µM (loss of cellular ATP above 30% of the controls for higher concentrations, as shown in Supp. fig 1) | ERN1 (IRE1α) mRNA level [5]: enhanced IRE1α mRNA level; Therapeutic blood (or plasma) concentration in patients ([6]; listed as Allopurinol (ALLO)): 2 - 19 mg/L and 15 - 140 µM; Steatosis in PHH batches (six batches tested) [10]: accumulation of neutral lipids in five PHH batches
3 | Cn1cc[nH]c1=S [METHI, methimazole] |  |  | did not induce steatosis |  |  | ≤ 1500 | ≤ 13 |  |  | Therapeutic blood (or plasma) concentration in patients ([6]; listed as Methimazole (METHI)): 0.5 - 2.5 mg/L and 4.4 - 22 µM
4 | COC(=O)C1=C(C)NC(C)=C(C(=O)OC)C1c1ccccc1[N+](=O)[O-] [NIF, nifedipine] |  |  |  |  |  |  |  |  |  | Therapeutic blood (or plasma) concentration in patients ([6]; listed as Nifedipine (NIF)): 0.025 - 0.15 mg/L and 0.07 - 0.43 µM
5 | CCOC(=O)[C@@]1(CCCCCCOc2ccc(Cl)cc2)CO1 [etomoxir, (+)-etomoxir] |  |  |  |  | blocked |  |  |  |  | 
6 | O=C(NC1CCN(CCCCC2(C(=O)NCC(F)(F)F)c3ccccc3-c3ccccc32)CC1)c1ccccc1-c1ccc(C(F)(F)F)cc1 [lomitapide] |  |  |  |  |  |  |  | inhibited |  | 

Second part, led by results:

Row | Concentration corresponding to 100xCmax [4] [µM] | SMILES | Effect on DNL [1] | Accumulation of neutral lipids (steatosis) [2, 12] | Effect on apoC3 secretion [3] | Effect on mtFAO [7] | Maximum plasma concentration (Cmax) in patients [8] [ng/mL] | Cmax [8] [µM] | Effect on apoB secretion [9] | Loss of cellular ATP relative to the maximum concentration selected for the study [11] | further results
7 | 2500 | CC(C)(S)[C@@H](N)C(=O)O [DPEN, D-penicillamine] |  | did not induce steatosis |  |  | ≤ 3760 | ≤ 25 |  | 2500 µM (slight loss of cellular ATP for this concentration, as shown in Supp. fig 1) | Accumulation of neutral lipids (steatosis) ([2]; concentrations above 100 × Cmax (100 μM NIF, 5000 μM DPEN)): significant accumulation of neutral lipids; Therapeutic blood (or plasma) concentration in patients ([6]; listed as D-penicillamine (DPEN)): 1.7 - 5.6 mg/L and 11.4 - 37.6 µM
8 | 1300 | CC(C)(C)NC(=O)[C@@H]1CN(Cc2cccnc2)CCN1C[C@@H](O)C[C@@H](Cc1ccccc1)C(=O)N[C@H]1c2ccccc2C[C@H]1O [INDI, indinavir] | curb this metabolic pathway | significant accumulation of neutral lipids | reduced the secretion |  | ≤ 8000 | ≤ 13 | reduced the secretion |  | 
